Assay results reported in PubChem BioAssay (NCI).
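All cell lines were grown in 96-well plates and treated with compound for 48 hours. GI50 marks 50% less growth. The concentration for full growth arrest is given as TGI.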

How the values were obtained:
Assay in all cases: DTP human tumour cell line panel, 48 h
HCC-2998 colon = test system: HCC-2998 colon
ACHN renal = test system: ACHN renal
HCT-15 colon = test system: HCT-15 colon
HOP-92 NSCLC = test system: HOP-92 NSCLC
UACC-257 melanoma = test system: UACC-257 melanoma
NCI-H522 lung = test system: NCI-H522 lung
SF-268 CNS = test system: SF-268 CNS
SW-620 colon = test system: SW-620 colon
SR leukemia = test system: SR leukemia
K-562 leukemia = test system: K-562 leukemia

## CN(C)C(=O)C(NCCO)c1ccccc1 (stereo not drawn)
HCC-2998 colon
  TGI: > 100 µM
ACHN renal
  TGI: > 100 µM
HCT-15 colon
  TGI: > 100 µM
HOP-92 NSCLC
  TGI: > 100 µM
UACC-257 melanoma
  TGI: > 100 µM
NCI-H522 lung
  TGI: > 100 µM
SF-268 CNS
  TGI: > 100 µM
SW-620 colon
  TGI: > 100 µM

## N#Cc1c(N)n(C2OC(CO)C(O)C2O)c2ncnc(N)c12 (stereo not drawn)
HCC-2998 colon
  GI50: 0.145 µM
  TGI: 0.509 µM
ACHN renal
  TGI: 0.417 µM
HCT-15 colon
  TGI: 0.164 µM
SR leukemia
  TGI: 0.0474 µM
HOP-92 NSCLC
  TGI: > 100 µM
UACC-257 melanoma
  TGI: 0.574 µM
SF-268 CNS
  TGI: 1.81 µM
K-562 leukemia
  TGI: > 20.2 µM

## C=CC1CC12C(=O)C1OC2(C)C2C(=O)c3c(O)cccc3C(=O)C12 (stereo not drawn)
HCC-2998 colon
  GI50: 31.1 µM
  TGI: > 100 µM
ACHN renal
  GI50: 20.1 µM
  TGI: 46.6 µM
HCT-15 colon
  GI50: 19.1 µM
  TGI: 44.6 µM
HOP-92 NSCLC
  GI50: 25.8 µM
  TGI: > 100 µM
UACC-257 melanoma
  GI50: 33.3 µM
  TGI: > 100 µM
NCI-H522 lung
  GI50: 39.8 µM
  TGI: > 100 µM
SF-268 CNS
  GI50: 30.5 µM
  TGI: > 100 µM
K-562 leukemia
  GI50: 29.6 µM
  TGI: 90.7 µM

## [O-]c1ccccc1[C-]=Nc1ccccc1O.[O-]c1ccccc1[C-]=Nc1ccccc1O.[O]=[U]=[O]
ACHN renal
  GI50: 9.09 µM
  TGI: 26.7 µM
HCT-15 colon
  GI50: 3.56 µM
  TGI: 36.3 µM
HOP-92 NSCLC
  GI50: 8.4 µM
  TGI: 35.2 µM
UACC-257 melanoma
  GI50: 3.9 µM
  TGI: 26.3 µM
NCI-H522 lung
  GI50: 4.01 µM
  TGI: 51.8 µM
SF-268 CNS
  GI50: 11.3 µM
  TGI: 58.1 µM
SW-620 colon
  GI50: 12.2 µM
  TGI: 74.5 µM
K-562 leukemia
  GI50: 2.79 µM
  TGI: > 100 µM

## CN1CCN2c3ccccc3CC(C#N)(C#N)C2C1 (stereo not drawn)
HCC-2998 colon
  TGI: > 100 µM
ACHN renal
  TGI: > 100 µM
HCT-15 colon
  TGI: > 100 µM
HOP-92 NSCLC
  TGI: > 100 µM
UACC-257 melanoma
  TGI: > 100 µM
NCI-H522 lung
  TGI: > 100 µM
SF-268 CNS
  TGI: > 100 µM
SW-620 colon
  TGI: > 100 µM
K-562 leukemia
  TGI: > 100 µM

## N=C(N)c1ccc(CS(=O)(=O)F)cc1
HCC-2998 colon
  GI50: > 100 µM
  TGI: > 100 µM
ACHN renal
  GI50: > 100 µM
  TGI: > 100 µM
HCT-15 colon
  GI50: > 100 µM
  TGI: > 100 µM
HOP-92 NSCLC
  GI50: > 100 µM
  TGI: > 100 µM
UACC-257 melanoma
  GI50: > 100 µM
  TGI: > 100 µM
NCI-H522 lung
  GI50: > 100 µM
  TGI: > 100 µM
SF-268 CNS
  GI50: > 100 µM
  TGI: > 100 µM
SW-620 colon
  GI50: > 100 µM
  TGI: > 100 µM
K-562 leukemia
  GI50: > 100 µM
  TGI: > 100 µM

## CCOC(=O)C1Nc2ccc([N+](=O)[O-])cc2[C@H]2OCC[C@@H]12 (stereo partly drawn)
HCC-2998 colon
  TGI: > 100 µM
ACHN renal
  TGI: > 100 µM
HCT-15 colon
  TGI: > 100 µM
UACC-257 melanoma
  TGI: > 100 µM
NCI-H522 lung
  TGI: > 100 µM
SF-268 CNS
  TGI: > 100 µM
SW-620 colon
  TGI: > 100 µM
K-562 leukemia
  TGI: > 100 µM

## O=S1(=O)OCc2ccccc21
HCC-2998 colon
  TGI: > 100 µM
ACHN renal
  TGI: > 100 µM
HCT-15 colon
  TGI: > 100 µM
HOP-92 NSCLC
  TGI: > 100 µM
UACC-257 melanoma
  TGI: > 100 µM
NCI-H522 lung
  TGI: > 100 µM
SF-268 CNS
  TGI: > 100 µM
SW-620 colon
  TGI: > 100 µM
K-562 leukemia
  TGI: > 100 µM

## O=C1C[C@@H]2[C@@H](C=CC23CC3)N1O
HCC-2998 colon
  TGI: > 100 µM
UACC-257 melanoma
  TGI: > 100 µM
NCI-H522 lung
  TGI: > 100 µM
SF-268 CNS
  TGI: > 100 µM
SW-620 colon
  TGI: > 100 µM
K-562 leukemia
  TGI: > 100 µM

## CC(C)(C)c1cc(O)c2c(c1O)C(=O)CCC2
HCC-2998 colon
  TGI: > 100 µM
ACHN renal
  TGI: > 100 µM
HCT-15 colon
  TGI: > 100 µM
HOP-92 NSCLC
  TGI: 21.1 µM
UACC-257 melanoma
  TGI: 74.3 µM
SW-620 colon
  TGI: > 100 µM
K-562 leukemia
  TGI: > 100 µM

## O=C1C2=C(C(=O)c3c(O)ccc(O)c31)N(c1cccnc1)Cc1ccccc1O2
HCC-2998 colon
  GI50: 1.52 µM
  TGI: 3.23 µM
ACHN renal
  GI50: 0.0612 µM
  TGI: 0.195 µM
HCT-15 colon
  GI50: 0.167 µM
  TGI: 0.648 µM
HOP-92 NSCLC
  GI50: 0.207 µM
  TGI: 0.459 µM
UACC-257 melanoma
  GI50: 0.399 µM
  TGI: 1.39 µM
NCI-H522 lung
  GI50: 0.0288 µM
  TGI: 0.112 µM
SF-268 CNS
  GI50: 0.65 µM
  TGI: 2 µM
SW-620 colon
  GI50: 0.145 µM
  TGI: 0.357 µM
K-562 leukemia
  GI50: 0.0752 µM

## CN1C(=O)C(C)(C)NS1(=O)=O
HCC-2998 colon
  TGI: > 100 µM
ACHN renal
  TGI: > 100 µM
HCT-15 colon
  TGI: > 100 µM
UACC-257 melanoma
  TGI: > 100 µM
SF-268 CNS
  TGI: > 100 µM
SW-620 colon
  TGI: > 100 µM
K-562 leukemia
  TGI: > 100 µM

## CCOc1ccc(NC(=O)/C(Cc2nc3ccccc3[nH]c2=O)=N\O)cc1
HCC-2998 colon
  TGI: > 100 µM
ACHN renal
  TGI: > 100 µM
HCT-15 colon
  TGI: > 100 µM
HOP-92 NSCLC
  TGI: > 100 µM
UACC-257 melanoma
  TGI: > 100 µM
NCI-H522 lung
  TGI: > 100 µM
SF-268 CNS
  TGI: > 100 µM
SW-620 colon
  TGI: > 100 µM
K-562 leukemia
  TGI: > 100 µM

## CC1=CC[C@@H]2[C@@H](CC[C@@]2(C)O)C(C)(C)[C@H]1CC[C@@H]1[C@@]2(C)CC[C@@H](O)C(C)(C)O[C@@H]2CC[C@]1(C)O
HCC-2998 colon
  TGI: 33.4 µM
ACHN renal
  TGI: 58.7 µM
HCT-15 colon
  TGI: 38 µM
SR leukemia
  TGI: 42.8 µM
HOP-92 NSCLC
  TGI: 37.1 µM
UACC-257 melanoma
  TGI: 81 µM
SW-620 colon
  TGI: 85.7 µM
K-562 leukemia
  TGI: > 100 µM

## Cc1cc(N(CCC#N)CCC#N)ccc1/C=C(\NC(=O)/C=C/c1ccccc1)NC(=O)Nc1ccccc1C
HCC-2998 colon
  TGI: > 100 µM
ACHN renal
  TGI: > 100 µM
HCT-15 colon
  TGI: > 100 µM
HOP-92 NSCLC
  TGI: 62 µM
UACC-257 melanoma
  TGI: > 100 µM
SF-268 CNS
  TGI: > 100 µM
SW-620 colon
  TGI: > 100 µM
K-562 leukemia
  TGI: > 100 µM

## CC12CCC(=O)N1c1cc([N+](=O)[O-])ccc1N2 (stereo not drawn)
ACHN renal
  TGI: > 100 µM
HCT-15 colon
  TGI: > 100 µM
SR leukemia
  TGI: > 100 µM
UACC-257 melanoma
  TGI: > 100 µM
NCI-H522 lung
  TGI: > 100 µM
SF-268 CNS
  TGI: > 100 µM
SW-620 colon
  TGI: > 100 µM
K-562 leukemia
  TGI: > 100 µM
